Measured values as given in PubChem BioAssay (NCI).
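Where inhibition never reached the appropriate level, the endpoint shown equals the highest concentration tested. Otherwise, values were interpolated linearly from a five-concentration, 48-hour dose response in 96-well plates. TGI: concentration producing complete growth inhibition.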 Where a SMILES comes first, the peptide text is derived from it. [ ]: non-standard residue; d: D form. The star is where a group is joined. Phe(4-NO2) = N[CH](Cc1ccc([N+](=O)[O-])cc1)C(=O)O; Boc = CC(C)(C)OC(=O)*

Experiments:
Assay in all cases: NCI tumour cell line growth inhibition, 48 h
U251 CNS = tested on: U251 CNS
NCI-H23 lung = tested on: NCI-H23 lung
CAKI-1 renal = tested on: CAKI-1 renal
A498 renal = tested on: A498 renal
RXF 393 renal = tested on: RXF 393 renal
OVCAR-3 ovarian = tested on: OVCAR-3 ovarian
NCI-H460 lung = tested on: NCI-H460 lung
HOP-62 NSCLC = tested on: HOP-62 NSCLC
UACC-62 melanoma = tested on: UACC-62 melanoma

COc1ccc(/C=c2\[nH]c3nc(=O)c(N4CCCCC4)c(N)n3c2=O)cc1
TGI (U251 CNS): > 100 µM
TGI (NCI-H23 lung): > 100 µM
TGI (CAKI-1 renal): > 100 µM
TGI (A498 renal): > 100 µM
TGI (RXF 393 renal): > 100 µM

O=c1c2ccccc2nc(N/N=C/c2ccc([N+](=O)[O-])cc2)n1-c1ccccc1
TGI (U251 CNS): 48.4 µM
TGI (NCI-H23 lung): > 100 µM
TGI (CAKI-1 renal): 49.4 µM
TGI (OVCAR-3 ovarian): > 100 µM
TGI (NCI-H460 lung): > 100 µM
TGI (RXF 393 renal): 32.7 µM
TGI (HOP-62 NSCLC): 67.5 µM
TGI (UACC-62 melanoma): > 100 µM

Cc1ccc(-n2nncc2[Si](C)(C)C)s1
TGI (U251 CNS): > 100 µM
TGI (NCI-H23 lung): > 100 µM
TGI (CAKI-1 renal): > 100 µM
TGI (A498 renal): > 100 µM
TGI (OVCAR-3 ovarian): > 100 µM
TGI (NCI-H460 lung): > 100 µM
TGI (UACC-62 melanoma): > 100 µM

Cc1nc2ccc(Br)cc2c(=O)n1-c1ccc(N)cc1
TGI (CAKI-1 renal): > 100 µM
TGI (A498 renal): > 100 µM
TGI (OVCAR-3 ovarian): > 100 µM
TGI (NCI-H460 lung): > 100 µM
TGI (RXF 393 renal): 81.8 µM
TGI (HOP-62 NSCLC): > 100 µM
TGI (UACC-62 melanoma): > 100 µM

COc1ccc(/C=C2\CCCc3ccccc3C2=O)cc1
TGI (U251 CNS): 35.1 µM
TGI (NCI-H23 lung): 7.76 µM
TGI (CAKI-1 renal): > 66.7 µM
TGI (OVCAR-3 ovarian): 0.422 µM
TGI (NCI-H460 lung): > 100 µM
TGI (HOP-62 NSCLC): 76.7 µM
TGI (UACC-62 melanoma): 26 µM

Cc1cc(C)c2c(c1)C/C(=C\c1cccc(C)c1C(=O)O)C2=O
TGI (NCI-H23 lung): > 100 µM
TGI (CAKI-1 renal): > 100 µM
TGI (A498 renal): > 100 µM
TGI (OVCAR-3 ovarian): > 100 µM
TGI (NCI-H460 lung): > 100 µM
TGI (RXF 393 renal): > 100 µM
TGI (HOP-62 NSCLC): > 100 µM
TGI (UACC-62 melanoma): > 100 µM

COc1ccc(-n2c(N)c(C#N)c(C#N)c2-c2ccco2)cc1
TGI (U251 CNS): > 100 µM
TGI (NCI-H23 lung): > 100 µM
TGI (CAKI-1 renal): > 100 µM
TGI (A498 renal): > 100 µM
TGI (OVCAR-3 ovarian): > 100 µM
TGI (RXF 393 renal): > 100 µM
TGI (HOP-62 NSCLC): > 100 µM
TGI (UACC-62 melanoma): > 100 µM

O=C1CCCCC/C1=C\c1cccc(F)c1
TGI (U251 CNS): > 100 µM
TGI (CAKI-1 renal): > 100 µM
TGI (A498 renal): > 100 µM
TGI (OVCAR-3 ovarian): > 100 µM
TGI (NCI-H460 lung): > 100 µM
TGI (RXF 393 renal): > 100 µM
TGI (HOP-62 NSCLC): > 100 µM
TGI (UACC-62 melanoma): > 100 µM

c1cc2cc3c4c5c(cc6ccc7cc8cc9c%10c8c8c7c6c5c8c5c%10c(c1C9N1CCOCCOCCOCCOCCOCC1)c2c45)C3 (centres undefined)
TGI (U251 CNS): > 100 µM
TGI (NCI-H23 lung): > 100 µM
TGI (OVCAR-3 ovarian): > 100 µM
TGI (NCI-H460 lung): > 100 µM
TGI (RXF 393 renal): > 100 µM
TGI (HOP-62 NSCLC): > 100 µM
TGI (UACC-62 melanoma): > 100 µM

CC(=O)/C=C/c1ccccc1
TGI (U251 CNS): > 100 µM
TGI (NCI-H23 lung): 85.5 µM
TGI (CAKI-1 renal): > 100 µM
TGI (A498 renal): 76.3 µM
TGI (NCI-H460 lung): > 100 µM
TGI (RXF 393 renal): > 100 µM
TGI (HOP-62 NSCLC): 93.9 µM
TGI (UACC-62 melanoma): > 100 µM

COc1c(C)c(C/C=C(\C)CCCC(C)CCCC(C)CCCC(C)C)c(OC)c2ccccc12 (centres undefined)
TGI (U251 CNS): > 100 µM
TGI (NCI-H23 lung): > 100 µM
TGI (CAKI-1 renal): > 100 µM
TGI (OVCAR-3 ovarian): > 100 µM
TGI (NCI-H460 lung): > 100 µM
TGI (RXF 393 renal): > 100 µM
TGI (UACC-62 melanoma): > 100 µM

O=C1C=CC2(O[C@H](C3CCCCC3)[C@@H](C3CCCCC3)O2)C(SC(=O)c2ccccc2)C1 (some centres undefined)
TGI (U251 CNS): 6.86 µM
TGI (NCI-H23 lung): 8.93 µM
TGI (A498 renal): 18.4 µM
TGI (OVCAR-3 ovarian): 2.04 µM
TGI (NCI-H460 lung): 17.6 µM
TGI (RXF 393 renal): 2.49 µM
TGI (HOP-62 NSCLC): 9.57 µM
TGI (UACC-62 melanoma): 8.57 µM

N/N=C(/N)SCCCCCCCCCCS/C(N)=N/N
TGI (U251 CNS): 51.4 µM
TGI (NCI-H23 lung): > 100 µM
TGI (CAKI-1 renal): > 100 µM
TGI (A498 renal): 43.8 µM
TGI (OVCAR-3 ovarian): 91.1 µM
TGI (NCI-H460 lung): 32.7 µM
TGI (HOP-62 NSCLC): > 100 µM
TGI (UACC-62 melanoma): 47.1 µM

O=C1c2ccccc2C2(c3ccc(F)cc3)NCCN12 (centres undefined)
TGI (U251 CNS): > 100 µM
TGI (NCI-H23 lung): > 100 µM
TGI (CAKI-1 renal): > 100 µM
TGI (OVCAR-3 ovarian): > 100 µM
TGI (NCI-H460 lung): > 100 µM
TGI (RXF 393 renal): > 100 µM
TGI (HOP-62 NSCLC): > 100 µM
TGI (UACC-62 melanoma): > 100 µM

Cn1c2ccccc2n2c3ncccc3c(=O)cc12
TGI (U251 CNS): > 100 µM
TGI (NCI-H23 lung): > 100 µM
TGI (CAKI-1 renal): > 100 µM
TGI (A498 renal): > 100 µM
TGI (OVCAR-3 ovarian): > 100 µM
TGI (NCI-H460 lung): > 100 µM
TGI (RXF 393 renal): > 100 µM
TGI (HOP-62 NSCLC): > 100 µM

Oc1c(Cl)cc2cc1-c1cc(cc(Cl)c1O)CCc1c(cc(Cl)c(O)c1Cl)-c1cc(Cl)c(c(Cl)c1O)/C=C\2
TGI (U251 CNS): 45.6 µM
TGI (NCI-H23 lung): 33.6 µM
TGI (A498 renal): 30.8 µM
TGI (OVCAR-3 ovarian): 14.4 µM
TGI (NCI-H460 lung): 13.1 µM
TGI (RXF 393 renal): > 50 µM
TGI (HOP-62 NSCLC): 16 µM
TGI (UACC-62 melanoma): 18 µM

CCOC(=O)CCc1cn2cc(Br)nc(OC)c2n1
TGI (U251 CNS): > 100 µM
TGI (NCI-H23 lung): > 100 µM
TGI (CAKI-1 renal): > 100 µM
TGI (OVCAR-3 ovarian): > 100 µM
TGI (NCI-H460 lung): > 100 µM
TGI (RXF 393 renal): > 100 µM
TGI (HOP-62 NSCLC): > 100 µM
TGI (UACC-62 melanoma): > 100 µM

COc1cc(S(=O)(=O)Nc2ccc(-c3csc(N4C(=O)C(Cl)C4c4ccccc4O)n3)cc2)ccc1Cl (centres undefined)
TGI (NCI-H23 lung): 80.5 µM
TGI (CAKI-1 renal): > 100 µM
TGI (A498 renal): 0.948 µM
TGI (OVCAR-3 ovarian): > 100 µM
TGI (NCI-H460 lung): > 100 µM
TGI (RXF 393 renal): 52.6 µM
TGI (HOP-62 NSCLC): > 100 µM
TGI (UACC-62 melanoma): 59.1 µM

Cc1cc2c(c(C(=O)NCC(=O)O)c1)Oc1c(cc(C)cc1C(=O)NCC(=O)O)S2
TGI (U251 CNS): > 100 µM
TGI (NCI-H23 lung): > 100 µM
TGI (CAKI-1 renal): > 100 µM
TGI (OVCAR-3 ovarian): > 100 µM
TGI (RXF 393 renal): > 100 µM
TGI (HOP-62 NSCLC): > 100 µM
TGI (UACC-62 melanoma): > 100 µM

O=CC(O)C(O)C(O)C(O)COC(=O)NCCCCC(=O)C(F)(F)C(F)(F)C(F)(F)C(F)(F)C(F)(F)C(F)(F)C(F)(F)F (centres undefined)
TGI (NCI-H23 lung): > 100 µM
TGI (CAKI-1 renal): > 100 µM
TGI (A498 renal): 47.5 µM
TGI (OVCAR-3 ovarian): > 100 µM
TGI (NCI-H460 lung): 67.6 µM
TGI (RXF 393 renal): 62.4 µM
TGI (HOP-62 NSCLC): 62.8 µM
TGI (UACC-62 melanoma): 35.1 µM

CCOC(=O)CCC(NC(=O)C(Cc1ccc([N+](=O)[O-])cc1)NC(=O)OC(C)(C)C)C(=O)NC(CCC(=O)OCC)C(=O)OCC (centres undefined) (Boc-[Phe(4-NO2)]-Glu(OEt)-Glu(OEt)-OEt; configuration not given here)
TGI (U251 CNS): 44.6 µM
TGI (NCI-H23 lung): 31.8 µM
TGI (A498 renal): 36.4 µM
TGI (NCI-H460 lung): 57.3 µM
TGI (RXF 393 renal): 30.2 µM
TGI (HOP-62 NSCLC): 67.4 µM
TGI (UACC-62 melanoma): 32.4 µM

COc1cccc2c1OC1c3ccccc3OCC1(O)C2 (centres undefined)
TGI (U251 CNS): > 100 µM
TGI (NCI-H23 lung): > 100 µM
TGI (CAKI-1 renal): > 100 µM
TGI (A498 renal): > 100 µM
TGI (OVCAR-3 ovarian): > 100 µM
TGI (HOP-62 NSCLC): > 100 µM
TGI (UACC-62 melanoma): > 100 µM

Cc1ccc(S(=O)(=O)OCCC2CN(C(=O)OCc3ccccc3)C(C)(C)O2)cc1 (centres undefined)
TGI (U251 CNS): > 100 µM
TGI (NCI-H23 lung): 13.5 µM
TGI (CAKI-1 renal): > 100 µM
TGI (A498 renal): > 100 µM
TGI (OVCAR-3 ovarian): > 100 µM
TGI (NCI-H460 lung): 14.3 µM
TGI (RXF 393 renal): > 100 µM
TGI (UACC-62 melanoma): > 100 µM

Cc1cc(C)nc(NS(=O)(=O)c2ccc(NNc3c4ccccc4nc4c(C(=O)Nc5ccc(S(=O)(=O)Nc6cc(C)on6)cc5)cccc34)cc2)n1
TGI (U251 CNS): 79.2 µM
TGI (NCI-H23 lung): > 100 µM
TGI (CAKI-1 renal): > 100 µM
TGI (OVCAR-3 ovarian): 47.2 µM
TGI (NCI-H460 lung): > 100 µM
TGI (RXF 393 renal): > 100 µM
TGI (HOP-62 NSCLC): > 100 µM
TGI (UACC-62 melanoma): > 100 µM

C/C(=C\Cc1ccc(F)cc1)CCCCCC/C(C)=C/Cc1ccc(F)cc1
TGI (U251 CNS): 37.8 µM
TGI (NCI-H23 lung): 24 µM
TGI (CAKI-1 renal): 25.5 µM
TGI (OVCAR-3 ovarian): 53.8 µM
TGI (NCI-H460 lung): 17 µM
TGI (RXF 393 renal): 42.1 µM
TGI (HOP-62 NSCLC): 37.2 µM
TGI (UACC-62 melanoma): 33 µM
